Source: ChEMBL document CHEMBL5331071, “Structure-activity relationship study of amidobenzimidazole derivatives as stimulator of interferon genes (STING) agonists” (Eur J Med Chem, 2023)

Legend:
[1] = Cytotoxicity against human THP1-Dual KO-STING cells assessed as inhibition of cell growth by MTS assay; type: functional, cell-based
[2] = target: T1, Stimulator of interferon genes protein (Homo sapiens, UniProt Q86WV6); assay: Agonist activity at STING in human […] KO-STING cells incubated for 20 hrs by Quanti-luc reagent based assay; type: cell-based, THP1-Dual KO-STING
[3] = target: T1, Stimulator of interferon genes protein; assay: Agonist activity at STING in human THP1-Dual cells incubated for 20 hrs by Quanti-luc reagent based assay; type: cell-based
[4] = test system: THP1-Dual; assay: Cytotoxicity against human THP1-Dual habouring STING assessed as inhibition of cell growth by MTS assay; type: functional, cell-based

T1 sequence (Q86WV6 whole entry): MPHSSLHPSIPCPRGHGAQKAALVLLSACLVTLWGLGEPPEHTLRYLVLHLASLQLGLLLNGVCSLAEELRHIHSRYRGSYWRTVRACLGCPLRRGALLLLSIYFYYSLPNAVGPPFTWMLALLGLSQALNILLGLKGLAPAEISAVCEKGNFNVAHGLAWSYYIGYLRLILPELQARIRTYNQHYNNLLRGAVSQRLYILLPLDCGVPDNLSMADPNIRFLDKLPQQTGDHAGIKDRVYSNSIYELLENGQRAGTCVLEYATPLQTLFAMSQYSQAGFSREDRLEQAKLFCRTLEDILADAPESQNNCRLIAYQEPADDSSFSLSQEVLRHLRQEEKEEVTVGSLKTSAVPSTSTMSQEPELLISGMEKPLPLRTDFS

SMILES | IC50 [1] | EC50 [2] | EC50 [3] | IC50 [4]
CCn1nc(C)cc1C(=O)Nc1nc2cc(C(N)=O)cc(OC)c2n1CCOCCNC(=O)c1ccc(OC)cc1 | > 100 µM | > 100 µM | > 100 µM | > 100 µM
CCn1nc(C)cc1C(=O)Nc1nc2cc(C(N)=O)cc(OC)c2n1CCCC(=O)NCc1ccc2ccccc2c1 | > 100 µM | > 100 µM | 7.04 µM | > 100 µM
CCn1nc(C)cc1C(=O)Nc1nc2cc(C(N)=O)cc(OC)c2n1CCCC(=O)Nc1ccc2ccccc2c1 | > 100 µM | > 100 µM | 9.83 µM | > 100 µM
CCn1nc(C)cc1C(=O)Nc1nc2cc(C(N)=O)cc(OC)c2n1CCCNC(=O)c1ccc2ccccc2c1 | > 100 µM | > 100 µM | 0.93 µM | 10.8 µM
CCn1nc(C)cc1C(=O)Nc1nc2cc(C(N)=O)cc(OC)c2n1C/C=C/CNc1ccc(C(N)=O)cc1[N+](=O)[O-] | > 100 µM | > 100 µM | > 100 µM | > 100 µM
CCn1nc(C)cc1C(=O)Nc1nc2cc(C(N)=O)cc(OC)c2n1C/C=C/CNC(=O)c1ccc(C(F)(F)F)cc1 | > 100 µM | > 100 µM | > 100 µM | > 100 µM
CCn1nc(C)cc1C(=O)Nc1nc2cc(C(N)=O)cc(OC)c2n1CCCN1CCC(C(=O)Nc2ccc3ccccc3c2)CC1 | > 100 µM | > 100 µM | > 100 µM | > 100 µM
CCn1nc(C)cc1C(=O)Nc1nc2cc(C(N)=O)cc(OC)c2n1NCCCNC(=O)NCc1ccc2ccccc2c1 | > 100 µM | > 100 µM | > 100 µM | > 100 µM
CCn1nc(C)cc1C(=O)Nc1nc2cc(C(N)=O)cc(OC)c2n1NCCCC(=O)NCc1ccc(Cl)cc1C(F)(F)F | > 100 µM | > 100 µM | > 100 µM | > 100 µM
CCn1nc(C)cc1C(=O)Nc1nc2cc(C(N)=O)cc(OC)c2n1Cc1cn(Cc2ccc3ccccc3c2)nn1 | > 100 µM | > 100 µM | > 100 µM | > 100 µM
CCn1nc(C)cc1C(=O)Nc1nc2cc(C(N)=O)cc(OC)c2n1NCCCC(=O)NCc1ccc(-c2ccccc2)cc1 | > 100 µM | > 100 µM | 40.9 µM | > 100 µM
CCn1nc(C)cc1C(=O)Nc1nc2cc(C(N)=O)cc(OCC3COC3)c2n1NCCCNC(=O)c1ccc2ccccc2c1 | 18.2 µM | > 100 µM | 39.4 µM | 11.3 µM
CCn1nc(C)cc1C(=O)Nc1nc2cc(C(N)=O)cc(OC)c2n1C/C=C/CNC(=O)c1ccc2ccccc2c1 | > 100 µM | > 100 µM | > 100 µM | > 100 µM
CCn1nc(C)cc1C(=O)Nc1nc2cc(C(N)=O)cc(OC)c2n1CCCN1CCN(Cc2ccc3ccccc3c2)C(=O)C1 | > 100 µM | > 100 µM | > 100 µM | > 100 µM
CCn1nc(C)cc1C(=O)Nc1nc2cc(C(N)=O)cc(OC)c2n1C/C=C/CNC(=O)c1cnccn1 | > 100 µM | > 100 µM | > 100 µM | > 100 µM
CCn1nc(C)cc1C(=O)Nc1nc2cc(C(N)=O)cc(OC)c2n1C/C=C/Cn1c(C(F)(F)F)nc2cc(C(N)=O)ccc21 | > 100 µM | > 100 µM | > 100 µM | > 100 µM
CCn1nc(C)cc1C(=O)Nc1nc2cc(C(N)=O)cc(OC)c2n1C/C=C/CNC(=O)C1CCCCC1 | > 100 µM | > 100 µM | > 100 µM | > 100 µM
CCn1nc(C)cc1C(=O)Nc1nc2cc(C(N)=O)cc(OC)c2n1C/C=C/CNC(=O)c1cnc(C(F)(F)F)cn1 | > 100 µM | > 100 µM | > 100 µM | > 100 µM
CCn1nc(C)cc1C(=O)Nc1nc2cc(C(N)=O)cc(OC)c2n1C/C=C/CNC(=O)Cc1cnccn1 | > 100 µM | > 100 µM | > 100 µM | > 100 µM
CCn1nc(C)cc1C(=O)Nc1nc2cc(C(N)=O)cc(OC)c2n1C/C=C/CNC(=O)NCc1ccccc1 | > 100 µM | > 100 µM | > 100 µM | > 100 µM

SMILES | IC50 [1] | EC50 [2] | EC50 [3] | IC50 [4]
CCn1nc(C)cc1C(=O)Nc1nc2cc(C(N)=O)cc(OC)c2n1C/C=C/CNC(=O)c1ccoc1 | > 100 µM | > 100 µM | > 100 µM | > 100 µM
CCn1nc(C)cc1C(=O)Nc1nc2cc(C(N)=O)cc(OC)c2n1CCCN1CCN(C(=O)c2ccc3ccccc3c2)CC1 | > 100 µM | > 100 µM | > 100 µM | > 100 µM
CCn1nc(C)cc1C(=O)Nc1nc2cc(C(N)=O)cc(OC)c2n1C/C=C/CNc1ncc(C(N)=O)cn1 | > 100 µM | > 100 µM | > 100 µM | > 100 µM
CCn1nc(C)cc1C(=O)Nc1nc2cc(C(N)=O)cc(OC)c2n1C/C=C/CNC(=O)Nc1ccc2ccccc2c1 | > 100 µM | > 100 µM | > 100 µM | > 100 µM
CCn1nc(C)cc1C(=O)Nc1nc2cc(C(N)=O)cc(OC)c2n1CCCN1CCC(C(=O)Nc2ccccc2)CC1 | > 100 µM | > 100 µM | > 100 µM | > 100 µM
CCn1nc(C)cc1C(=O)Nc1nc2cc(C(N)=O)cc(OC)c2n1C/C=C/CNC(=O)c1cnc2ccccc2c1 | > 100 µM | > 100 µM | > 100 µM | > 100 µM
CCn1nc(C)cc1C(=O)Nc1nc2cc(C(N)=O)cc(OC)c2n1CCOCCNC(=O)c1ccc(C(F)(F)F)cc1 | > 100 µM | > 100 µM | > 100 µM | > 100 µM
CCn1nc(C)cc1C(=O)Nc1nc2cc(C(N)=O)cc(OC)c2n1CCCNC(=O)c1ccccc1 | > 100 µM | > 100 µM | > 100 µM | > 100 µM
CCn1nc(C)cc1C(=O)Nc1nc2cc(C(N)=O)cc(OCCCOC)c2n1NCCCC(=O)NCc1ccc(F)cc1 | > 100 µM | > 100 µM | 2.96 µM | > 100 µM
CCn1nc(C)cc1C(=O)Nc1nc2cc(C(N)=O)cc(OC)c2n1C/C=C/CNC(=O)c1cc(C(F)(F)F)cc(C(F)(F)F)c1 | > 100 µM | > 100 µM | > 100 µM | > 100 µM
CCn1nc(C)cc1C(=O)Nc1nc2cc(C(N)=O)cc(OC)c2n1NCCCC(=O)NCc1ccc(OC)cc1 | > 100 µM | > 100 µM | 4.1 µM | > 100 µM
CCn1nc(C)cc1C(=O)Nc1nc2cc(C(N)=O)cc(OC)c2n1C/C=C/Cn1c(=O)[nH]c2cc(C(N)=O)ccc21 | > 100 µM | > 100 µM | > 100 µM | > 100 µM
CCn1nc(C)cc1C(=O)Nc1nc2cc(C(N)=O)cc(OC)c2n1C/C=C/CNC(=O)Cc1ccccc1 | > 100 µM | > 100 µM | > 100 µM | > 100 µM
CCn1nc(C)cc1C(=O)Nc1nc2cc(C(N)=O)cc(OC)c2n1C/C=C/CNC1CCN(C)CC1 | > 100 µM | > 100 µM | > 100 µM | > 100 µM
CCn1nc(C)cc1C(=O)Nc1nc2cc(C(N)=O)cc(OC)c2n1C/C=C/CNC(=O)c1ccccc1 | > 100 µM | > 100 µM | 47.1 µM | > 100 µM
CCn1nc(C)cc1C(=O)Nc1nc2cc(C(N)=O)cc(OC)c2n1NCCCC(=O)NCc1ccc(Br)cc1F | > 100 µM | > 100 µM | 5.28 µM | > 100 µM
CCn1nc(C)cc1C(=O)Nc1nc2cc(C(N)=O)cc(OC)c2n1C/C=C/CNC1CCOCC1 | > 100 µM | > 100 µM | > 100 µM | > 100 µM
CCn1nc(C)cc1C(=O)Nc1nc2cc(C(N)=O)cc(OC)c2n1C/C=C/CNC(=O)c1cnc(OC)cn1 | > 100 µM | > 100 µM | > 100 µM | > 100 µM
CCn1nc(C)cc1C(=O)Nc1nc2cc(C(N)=O)cc(OC)c2n1NCCCC(=O)NCc1ccc(Cl)cc1Br | > 100 µM | > 100 µM | 96.3 µM | > 100 µM
